The values that follow come from US20230124862A1, “BISMUTH THIOL COMPOUNDS AND COMPOSITIONS AND METHODS OF TREATING MICROBIAL CO-INFECTIONS” (Microbion Corporation, priority 2020, published 2023).

Read-outs that look alike come from different tables or passages of the source. Marks after values point to notes of the source that are not given here.

One data set relates to Candida spp. The data set is described as follows: Broth microdilution MIC (Example 11). It counts as cell-based, C. parapsilosis, C. albicans, C. glabrata, C. tropicalis. On the technique in general: Dilution methods test growth across graded concentrations, often in twofold steps.
For a further data set, the system named is B. cenocepacia. The data set is described as follows: MIC testing of CF isolates. It counts as cell-based, Burkholderia cenocepacia. Particulars: strain AU197.
For the next data set, the system named is S. aureus. The data set is described as follows: Broth microdilution MIC (Example 11). It counts as cell-based, Staphylococcus aureus.
Another data set concerns Candida krusei. The data set is described as follows: Antifungal broth microdilution (Example 13). It counts as cell-based. Particulars: for MIC: Pichia kudriavzevii.
The next data set concerns E. coli ATCC 25922. The data set is described as follows: MIC control strain. As to conditions: QC organism, Example 13.
A further data set concerns Candida albicans. The data set is described as follows: Antifungal broth microdilution (Example 13). It counts as cell-based. Particulars: Candida albicans, 24 h, read-out: MIC0, C. albicans MMX 7445, FLU-R, VORI-R, complete inhibition.
The next data set concerns Enterococcus spp. The data set is described as follows: Broth microdilution MIC (Example 11). The data set is classed as cell-based, E. faecalis, E. faecium. As to conditions: Enterococcus, VRE, enterococci incl. VRE; read-out: MIC values.
The next data set has as its system Pseudomonas aeruginosa. It counts as in vivo, Sprague Dawley rats. As to conditions: rats, single dose of BisEDT, by Day 5. How it is done: The efficacy of BisEDT in reducing pulmonary bacterial burden associated with pulmonary infection in a rat model of pulmonary Pseudomonas aeruginosa infection was evaluated. The results follow.
Conclusion: Animals were divided into four experiment inhalational treatment groups: 1) Group 1, a negative control group treated with saline on Days 0, 2, and 4; 2) Group 2, a positive control group treated with tobramycin (target of 20 mg/kg, BID, Days 1-4); 3) Group 3, BisEDT (target of 0.1 mg/kg, QD, Days 0, 2, 4); and Group 4, BisEDT (target of 0.25 mg/kg, once, Day −1). Animals were further divided into two cohorts, separated by one day, to accommodate the challenge and treatment of the number of animals. All animals were exposed per protocol except Group 1 and 3, cohort 2. These animals were exposed on Days 0, 1, and 4 instead of on Days 0, 2, 4.
An in vivo efficacy study was designed to assess the efficacy of inhaled BisEDT in a chronic model of P. aeruginosa pulmonary infection. […] Animals were euthanized at Study Day 3 and 5 and assessed for level of pulmonary bacterial burden. […]

The next data set relates to S. aureus ATCC 29213. Particulars: CLSI established QC range; cited from earlier work.
Data set [1] deals with Gram-positive organisms (S. aureus, S. pneumoniae). As to conditions: cited from earlier work.
A short description of the next data set: in vivo. Also on record: species or system F344 rats. As to conditions: both sexes; for concentration at 30 hr: sac time 30 hr. Here is the method:
Detailed gross necropsies were performed on all animals (found dead, moribund, or scheduled necropsy) and consisted of a complete external and internal examination including body orifices and cranial, thoracic, and abdominal organs and tissues. All gross findings will be recorded in descriptive terms. […] Lungs collected and weighed.

Data set [2] deals with Gram-negative organisms (P. aeruginosa, E. coli, A. baumannii, H. influenzae). Particulars: cited from earlier work.
Data set [3] shares this test system. The data set is described as follows: Broth microdilution MIC with pulmonary surfactant (Survanta). As to conditions: evaluated organisms, 1-10% Survanta. The data set is classed as cell-based.
Data set [4] deals with P. aeruginosa and A. baumannii. As to conditions: P. aeruginosa (MMX 103), QC; cited from earlier work.
In another data set the test system is Klebsiella pneumoniae. As to conditions: K. pneumoniae ATCC BAA-1705; CLSI established QC range; cited from earlier work.
For a further data set, the system named is Enterobacteriaceae. Particulars: E. coli (MMX 102), QC; cited from earlier work.

Regarding `CC(S)C(C)S.[Bi]` (stereo not drawn) [BisBDT, bismuth-2,3-butanedithiol], the MIC amounted to 2 µg/mL in the data set on Candida spp. (24 h, C. albicans MMX 7039, Sensitive, incubation 24 hr); 2 µg/mL in the data set on Candida spp. (24 h, C. albicans MMX 7055, Sensitive, incubation 24 hr); 0.25 µg/mL with Candida spp. (24 h, C. glabrata MMX 7318, FLU^R, incubation 24 hr); 0.5 µg/mL in the data set with Candida spp. (24 h, C. glabrata miX 7086, FLU^R, incubation 24 hr); 0.5 µg/mL in the data set on Candida spp. (24 h, C. parapsilosis MMX 2323 (ATCC 22019), QC, incubation 24 hr); 4 µg/mL in the data set on Candida spp. (24 h, C. tropicalis MMX 7247, FLU^R, incubation 24 hr). In addition, the MIC in the data set on Candida spp. (24 h, C. tropicalis MMX 7248, FLU^R, incubation 24 hr) was determined as 4 µg/mL; in the data set on Candida spp. (24 h, C. tropicalis MMX 7360, FLU^R, incubation 24 hr), 2 µg/mL; against Candida spp. (48 h, C. albicans MMX 7039, Sensitive, incubation 48 hr) it was 2 µg/mL; against Candida spp. (48 h, C. albicans MMX 7055, Sensitive, incubation 48 hr), 2 µg/mL; in the data set with Candida spp. (48 h, C. glabrata MMX 7318, FLU^R, incubation 48 hr), 0.5 µg/mL; with Candida spp. (48 h, C. glabrata miX 7086, FLU^R, incubation 48 hr) it was 1 µg/mL. Moreover, the MIC in the data set on Candida spp. (48 h, C. parapsilosis MMX 2323 (ATCC 22019), QC, incubation 48 hr) stood at 1 µg/mL; against Candida spp. (48 h, C. parapsilosis MMX 7370, FLU^R, incubation 48 hr), 0.5 µg/mL; in the data set on Candida spp. (48 h, C. parapsilosis MMX 7555, FLU^R, incubation 48 hr) it was 0.5 µg/mL; in the data set with Candida spp. (48 h, C. tropicalis MMX 7247, FLU^R, incubation 48 hr), 4 µg/mL; against Candida spp. (48 h, C. tropicalis MMX 7248, FLU^R, incubation 48 hr), 8 µg/mL; with Candida spp. (48 h, C. tropicalis MMX 7360, FLU^R, incubation 48 hr), 2 µg/mL. For the same compound, the MIC against B. cenocepacia was 4 µg/mL; against S. aureus (S. aureus MMX 5373, MRSA, Lev^R Cip^R CC^R Ery^R Ox^R), at most 0.06 µg/mL; with S. aureus (S. aureus MMX 6311, MRSA, Lev^R Cip^R CC^R Ery^R Ox^R), at most 0.06 µg/mL; against S. aureus (S. aureus MMX 9204, MRSA, Lev^R Cip^R Ery^R Ox^R), at most 0.06 µg/mL; with S. aureus (S. aureus MMX 9205, MRSA, Lev^R Cip^R CC^R Ery^R Ox^R) it was at most 0.06 µg/mL; in the data set on S. aureus (Staphylococcus aureus, ATCC 29213 / MSSA) it was at most 0.06 µg/mL. For the same compound, the MIC in the data set with Candida krusei (C. krusei MMX 7125, Susceptible, 50% inhibition, read-out: MIC2) worked out at 0.5 µg/mL; in the data set with Candida krusei (C. krusei MMX 7125, Susceptible, complete inhibition, read-out: MIC0), 1 µg/mL; with Candida krusei (C. krusei MMX 7141, Susceptible, 50% inhibition, read-out: MIC2), 1 µg/mL; in the data set with Candida krusei (C. krusei MMX 7141, Susceptible, complete inhibition, read-out: MIC0) it was 2 µg/mL; in the data set with Candida krusei (C. krusei MMX 7155, Susceptible, 50% inhibition, read-out: MIC2), 0.5 µg/mL; with Candida krusei (C. krusei MMX 7155, Susceptible, complete inhibition, read-out: MIC0), 1 µg/mL. The MIC in the data set on Candida krusei (C. krusei MMX 7563, Susceptible, 50% inhibition, read-out: MIC2) stood at 0.5 µg/mL; in the data set on Candida krusei (C. krusei MMX 7563, Susceptible, complete inhibition, read-out: MIC0), 1 µg/mL; with Candida krusei (C. krusei MMX 9878, MICA-I, VORI-I, 50% inhibition, read-out: MIC2) it was 0.5 µg/mL; in the data set with Candida krusei (C. krusei MMX 9878, MICA-I, VORI-I, complete inhibition, read-out: MIC0), 1 µg/mL; in the data set with Candida krusei ([…], complete inhibition, read-out: MIC0) it was 1 µg/mL; in the data set with Candida krusei (read-out: MIC2), 0.5 µg/mL. Besides, the results for the MIC in the data set with Candida albicans and in the data set on Enterococcus spp. were 2 µg/mL and 0.25 to 1 µg/mL, respectively. The MIC 24 hr against Candida krusei (C. krusei ATCC 6258, first of two values x/y (footnote b not given, matches MIC2 of Table 107)) was 0.5 µg/mL; against Candida krusei (C. krusei ATCC 6258, second of two values x/y (footnote b not given, matches MIC0 of Table 107)), 1 µg/mL; in the data set on E. coli ATCC 25922 it was 0.5^a. In the data set on Candida krusei (C. krusei ATCC 6258, 48 hr, first of two values x/y (footnote b not given, presumably MIC2)), the MIC 48 hr stood at 1 µg/mL.
As for `C1C[S][Bi]([S]CC[S][Bi]2[S]CC[S]2)[S]1` [BisEDT, Bismuth-1,2-ethanedithiol], in the data set on Pseudomonas aeruginosa, the “efficacy vs tobramycin positive control group” value was “not significantly different”. The “QC range of MIC” value in the data set on S. aureus ATCC 29213 is recorded as “(0.12-1) μg/mL”. Moreover, the “CLSI acceptable MIC QC range” value in data set [1] (S. aureus ATCC 29213) is “(0.12-1) μg/mL”; in [1] (S. pneumoniae ATCC 49619), “(0.12-1) μg/mL”; in data set [2] (H. Influenzae ATCC 49247), “(0.015-0.06) μg/mL”; in data set [2] (P. aeruginosa ATCC 27853), 0.5 to 4 µg/mL. Further, the concentration at 30 hr in the data set “in vivo” (F344, in vivo, rat, inhalation, dose 47 μg/kg, read-out: Mean BisEDT Conc, lung at sacrifice) turned out to be 4.8 ng/g; in “in vivo” (F344, in vivo, rat, inhalation, dose 124 μg/kg, read-out: Mean BisEDT Conc, lung at sacrifice) it was 5.9 ng/g; in the data set “in vivo” (F344, in vivo, rat, inhalation, dose 400 μg/kg, read-out: Mean BisEDT Conc, lung at sacrifice) it was 12.1 ng/g. The concentration at 24 hr in the data set “in vivo” (F344, in vivo, rat, inhalation, dose 3000 μg/kg, sac time 24 hr, read-out: Mean BisEDT Conc, lung at sacrifice) amounted to 82.3 ng/g. Also, the Kp at 24 hours in “in vivo” (F344, rat, in vivo, rats, 24 hours after dosing, read-out: lung tissue drug levels higher than blood levels) was 4 to 5. Moreover, the “effect of Survanta addition on MIC values” in data set [3] is given as “largely unaffected”.
In the case of `C[C@@H](O)[C@H]1C(=O)N2C(C(=O)O)=C(S[C@@H]3CN[C@H](C(=O)N(C)C)C3)[C@H](C)[C@H]12` [MEM], the “CLSI Quality Control Range (MIC)” value in data set [4] is “(0.25-1)”; in the data set on Enterobacteriaceae it was “(0.008-0.06) μg/mL”. In addition, the “QC range of MIC” value in the data set with Klebsiella pneumoniae is listed as “(8-64) μg/mL”.
